The values that follow come from US11066433B2, “Pentaaza macrocyclic ring complexes possessing oral bioavailability” (Galera Labs, LLC, priority 2015, dated 2021).

Series [1] in a line: Oral bioavailability by intraduodenal (id) dosing of minipigs, oil formulations, versus iv parent. To be noted: id 10 mg/kg, 10% by weight formulation, vs iv 1 mg/kg parent, AUC0-24 h. The series is classed as in vivo, Gottingen minipig. How it is done: Compounds were screened for oral bioavailability by injecting the formulated prodrugs directly into the duodenum (intraduodenal or id administration) of the minipig test subjects, thus bypassing the acidic environment of the stomach and thereby eliminating potentially misleading oral bioavailability results that could arise from alteration of the test article drug in the acid environment of the stomach.
The studies were conducted at Xenometrics LLC (Stillwell, Kans.) and the id bioavailability was determined using various axial ligand derivative complexes of GC4419, GC4444, GC4403 and GC4401.
Male Gottingen minipigs (4-5 mo old, 9-12 kg weight) were purchased from Marshall BioResources and housed at Xenometrics. […] The distal end was exteriorized with a reusable accessible hub (see surgical details below). During a recovery period of at least 2 weeks the minipigs were handled daily to acclimate them to the test procedures, i.e., id dosing and blood collections. For each experiment, each minipig received a test article drug dissolved or suspended in an excipient vehicle. […] All dosing experiments were conducted in fasted animals. Food was withdrawn from the minipigs 16 hours before dosing. The minipigs had ad libitum access to water. Dosed minipigs were allowed access to food 6 hour after dosing. The test article was administered at a dose of 10 mg/kg parent drug in 0.1 mL/kg vehicle (e.g., 1.5 mL in 15 kg minipig) as a bolus injection (˜1 minute) via the id cannula. The actual amount of total test article drug administered varied with the formula weight of the prodrug. An equal volume of excipient vehicle was used to flush the cannula after the test article was administered. Approximately 6 hours later, corn oil was used to flush the cannula. After approximately 24 hours post-dose, the catheter was flushed with sterile saline solution and capped. At the following time-points 0.25, 0.5, 1, 2, 4, 8, 24 and 48 hour post-injection, 2 mL blood samples were collected by cranial vena cava puncture (4 mL Sodium heparin Vacutainer, 20 g 1.5″ needle) after the skin surface was wiped with ethanol. The minipig was placed in a sling in a recumbent position without anesthesia for the collection of blood samples. The minipigs were never used more than once per 7 days for experimentation. The blood samples were kept on ice until processed for plasma. Blood samples were centrifuged at 1200×g for ten minutes at 4° C. and plasma samples were transferred to 96 well plate tubes, capped and stored at −20° C. until shipment on dry ice to the analytical laboratory used for measuring the concentration of drug in the plasma. The concentration of the parent manganese pentaaza macrocylic ring complex (independent of the composition of the axial ligands) was measured in plasma using a validated HPLC/MS/MS method that is linear between 50 ng/mL and 20,000 ng/mL.
Maisine 35-1 is chemically defined to be the monoglyceride glyceryl monolinoleate (NF) and was supplied by Gattefosse, SAINT-PRIEST Cedex, France. Labrasol (NF) is chemically defined to be caprylocaproyl polyoxyl-8 glycerides NF and was supplied by Gattefosse, SAINT-PRIEST Cedex, France. Labrafil M 1944 CS is chemically defined to be oleoyl polyoxyl-6 glycerides (NF), and is available from Gattefosse, SAINT-PRIEST Cedex, France. The dosing solutions were all prepared using a four place analytical balance by weighing all components of each formulation so that 10% by weight of each formulation contained the test article drug substance and 90% by weight of the oil used for that formulation.
The bioanalytical method which is used to quantitate the parent Mn(II) macrocyclic ring ligand structure in plasma utilizes HPLC with MS/MS detection and monitors the presence of the monocationic [monoformatoMn(pentaazamacrocycle)]+ complex. […]

Series [2] deals with lethal total body irradiation. As to conditions: ip, adult mice; cited from earlier work.
Another series deals with inflammation. To be noted: ip, rat; cited from earlier work.
The subject of series [3] is colon of rats subjected to an experimental model of colitis. To be noted: ip injection; cited from earlier work.
The test system of series [4] is radiation-induced oral mucositis. As to conditions: ip, hamster oral mucositis model; cited from earlier work.
For series [5], the system named is collagen-induced arthritis. To be noted: ip, rat collagen-induced arthritis; cited from earlier work.
Series [6] has as its system VEGFr inhibitor-induced pulmonary disease. As to conditions: ip, rat model; cited from earlier work.
The next series in a line: Solubility in water. The series is classed as physicochemical.
For a further series, the system named is oral mucositis. As to conditions: iv infusion, head-and-neck cancer patients, chemoradiation therapy; cited from earlier work.
The subject of the next series is mouse cancer models. As to conditions: ip; cited from earlier work.

For `[Cl-].[Cl-].[Mn+2].c1cc2nc(c1)CN[C@@H]1CCCC[C@H]1NCCN[C@@H]1CCCC[C@H]1NC2` [GC4403], the “Mini-Pig BioA” value in series [1] (base oil Capmul MCM) came to 9%. Moreover, the radiation damage entry in [2] and in [4] was “attenuate the radiation damage” each time. Besides, the inflammation entry in the series on inflammation is recorded as “inhibit inflammation”. In addition, the “injury to the colon” value in series [3] is “significantly reduce the injury to the colon”. Further, the joint disease result in [5] was “prevent joint disease”.

As for `[Cl][Mn][Cl].c1cc2nc(c1)CN[C@H]1CCCC[C@@H]1NCCN[C@H]1CCCC[C@@H]1NC2` [GC4419, reference compound], the “Mini-Pig BioA” value amounted to 9% in [1] (base oil Capmul MCM); 7% in series [1] (base oil Labrafil M2125 CS); 8% in series [1] (base oil Maisine 35-1); 8% in series [1] (base oil Miglyol 812 N); 9% in [1] (base oil Peceol). Further, in [6], the pulmonary disease entry was “attenuate VEGFr inhibitor-induced pulmonary disease”. Further, the solubility in water entry in the series “Solubility in water” is recorded as “relatively readily soluble in water”. In addition, in the series on oral mucositis, the oral mucositis entry was “reduce oral mucositis”. Also, in the series with mouse cancer models, the “anti-tumor activity of anti-metabolite and anti-mitotic agents” value is recorded as “increase the anti-tumor activity”.

For “Manganese(II)bis-racemic-2-phenylpropionato[(4aS,13aS,17aS,21 aS)-1,2,3,4,4a,5,6,12,13,13a,14,15,16,17,17a,18,19,20,21,21a-Eicosahydro-11,7-nitrilo-7H-dibenzo[b,h][1,4,7,10] tetraazacycloheptadecine-κN5, κN13, κN18, κN21, κN22]- [GC4705]”, the “Mini-Pig BioA” value is reported as 23% in series [1] (base oil Capmul MCM) and 24% in series [1] (base oil Peceol).

In the case of “Manganese(II)bis-racemic-phenylglycinato[2S, 21 S-Dimethyl(4aR,13aR,17aR,21 aR)-1,2,3,4,4a,5,6,12,13,13a,14,15,16,17,17a,18,19,20,21,21a-Eicosahydro-11,7-nitrilo-7H-dibenzo[b,h][1,4,7,10] tetraazacycloheptadecine-κN5, κN13, κN18, κN21, κN22]- [GC4715]”, the “Mini-Pig BioA” value in [1] (base oil Capmul MCM) is 36%.

Regarding “Manganese(II)bis-racemic-phenylglycinato[6R-Methyl(4aR,13aR,17aR,21 aR)-1,2,3,4,4a,5,6,12,13,13a,14,15,16,17,17a,18,19,20,21,21a-Eicosahydro-11,7-nitrilo-7H-dibenzo[b,h][1,4,7,10] tetraazacycloheptadecine-κN5, κN13, κN18, κN21, κN22]- [GC4716]”, the “Mini-Pig BioA” value in series [1] (base oil Capmul MCM) is reported as 34%.

As for “Manganese(II)bis-racemic-phenylglycinato[(4aR,13aR,17aR,21 aR)-1,2,3,4,4a,5,6,12,13,13a,14,15,16,17,17a,18,19,20,21,21a-Eicosahydro-11,7-nitrilo-7H-dibenzo[b,h][1,4,7,10] tetraazacycloheptadecine-κN5, κN13, κN18, κN21, κN22]- [GC4717]”, the “Mini-Pig BioA” value in series [1] (base oil Capmul MCM) is 26%.

As to “Manganese(II)bis-racemic-phenylglycinato[(4aS,13aS,17aS,21 aS)-1,2,3,4,4a,5,6,12,13,13a,14,15,16,17,17a,18,19,20,21,21a-Eicosahydro-11,7-nitrilo-7H-dibenzo[b,h][1,4,7,10] tetraazacycloheptadecine-κN5, κN13, κN18, κN21, κN22]- [GC4720]”, the “Mini-Pig BioA” value in series [1] (base oil Capmul MCM) is 33%; in series [1] (base oil Miglyol 812 N), 32%.
